The numbers were not newly measured in US20090298951A1, “Nontoxic Biocidal Composition And Method Thereof” (priority 2008, published 2009), which cites them from elsewhere.

The conditions of the data set: 20° C.

For the compound `C/C=C/C=C/C(=O)[O-].[K+]` [potassium sorbate, potassium (E,E)-hexa-2,4-dienoate], the soluble in water is 58.2%.
